# According to US20250213593A1, “Use of Derivatives based on Sarsasapogenin Structure and Pharmaceutical Compositions thereof” (BEIJING PHYTOVENT PHARMACEUTICAL TECHNOLOGY CO., LTD., priority 2022, published 2025):
# “Also recorded” adds a separate entry of the source. Marks after values point to notes of the source that are not given here.
# What was measured:
# [1] = tested on: transgenic neutrophil fluorescent zebrafishes; test: Anti-inflammatory effect on LPS-induced inflammatory zebrafish; format: in vivo; settings: 80 μM; for Number of neutrophils (mean ± SE): 3 h, n = 10, model control 18, normal control 3
# Method: LPS was used to treat normal 3 dpf transgenic neutrophil fluorescent zebrafishes in a yolk sac injection, and a zebrafish inflammation model was established.
# Transgenic neutrophil fluorescent zebrafishes (3 dpf), well developed and consistent in stage on 3 days after fertilization, were picked under a microscope and placed in a six-well plate, with 30 zebrafishes being randomly picked for each well at a capacity of 3 mL in each well. A zebrafish inflammation model was established by administrating LPS in a yolk sac injection. “Embodiment 5” and “Embodiment 6” were respectively dissolved with water, wherein the concentrations were 0.28 μM, 0.83 μM and 2.5 μM, respectively. The concentration of indomethacin was 80 μM. Meanwhile, a normal control group (i.e., zebrafishes were treated with fish-farming water) and a model control group were set, and incubated in a 28° C. incubator for 3 h. 10 zebrafishes were randomly selected from each group, and observed and photographed under a fluorescence microscope, and the photos were saved. Nikon NIS-Elements D 3.10 advanced image processing software was used for image analysis, the number (N) of inflammatory neutrophils in zebrafish was calculated, and the statistical processing results were expressed as mean±SE. The statistical analysis results of the number of inflammatory neutrophils in zebrafish were used to evaluate whether “Embodiment 5” and “Embodiment 6” had significant anti-inflammatory effects on LPS-induced inflammatory zebrafish, respectively. A formula for calculating the anti-inflammatory effects of “Embodiment 5” and “Embodiment 6” was as follows: […]
# [2] = tested on: rats with ulcerative colitis induced by TNBS; test: TNBS rats enteritis model; format: in vivo, rat; settings: 80 mpk oral gavage once a day, 7 days
# Method: All rats except the normal control group were fasted for solids (not liquids) for 24 h. After being anesthetized with isoflurane, the rats were transrectally infused with a TNBS ethanol solution (18 mg TNBS/mouse) at 0.5 mL/mouse through a latex hose, the length of the hose into the rectum was about 8 cm, an anesthesia state was continued after the hose was withdrawn, and the rats were kept in an inclined state for 15 min. The rats in the normal control group were not stimulated with rectal cannula. After the animals were awake, they were randomly divided into groups, which then began to be administrated with drugs (marked as D1). The blank group and the model group were administrated with the same amount of vehicle by oral gavage once a day for 7 consecutive days (D1-D7). The animal's status and feces (loose stools or bloody stools) were observed every day. The body weights were monitored. On the next day after the last administration (D8), the animals were deeply anesthetized with CO2, sacrificed and dissected. The entire colon tissues were harvested. The colon content was washed with normal saline after dissection along the mesenteric side. The body weights were measured and the colon lengths were measured. A ulcer surface was measured by Image J software. The general conditions of the colons were observed and photographed. Some of diseased tissues were fixed with formalin, and subjected to histopathological observation by HE staining. • Results: (1) the effects on general conditions of TNBS colitis mice were shown in FIG. 46a: the rats had loose stool on the next day of TNBS modeling; and the modeled mice had symptoms of reduced diet, tiredness, emaciation, erect hair, and dull hair. The feces of some rats were improved in the later stage of administration, but some rats still maintained loose stool until the end of the experiment, and some rats had obvious abdominal distension in the later stage of the experiment.
# [3] = tested on: mice with ulcerative colitis induced by 3.0% DSS; test: DSS mouse enteritis model; format: in vivo
# From the text: 60 mice in good health were divided into 6 groups according to body weight, with 10 mice in each group: a normal control group, a model group, a positive drug group, and groups of different test products (Embodiment 13B, Embodiment 33, and Embodiment 34, at a dosage of 80 mpk each). In addition to the normal control group, the mice in other groups were administrated with a 3.0% DSS solution to drink freely, and consecutively modeled for 8 days. The normal control group was administrated with autoclaved filtered water to drink freely. The drug was administered on the day of modeling, and a test product was administered by oral gavage according to a designed dosage, once a day for 9 consecutive days. […] On the next day after the last administration, after deep anesthesia with CO2, cardiac blood and plasma were collected, and cryopreserved at −80° C. Subsequently, the abdominal cavity was dissected, the liver was removed and cryopreserved at −80° C. Finally, the entire colon tissue was removed, the colon length was measured, photographs were taken, and the colon content was washed with normal saline after dissection along the mesenteric side and weighed.
# [4] = tested on: hippocampal neurons; test: L-cysteine-induced neuronal excitotoxicity; format: cell-based, SD rats; settings: for protective effects on L-Cystine (400 μM)-induced neuronal excitotoxicity: compound 1 μM, 24 h before inducer
# Method: Experimental and analytical method: before the experiment, a 24-well cell culture plate was pretreated with Poly-D-lysine and placed in a cell incubator at 37° C. and 5% CO2 overnight. SD rats, 18 days pregnant, were ordered, brains of fetal rats (E18-19) were dissected, and hippocampal neurons in the brains were subjected to primary culture in a neuronal medium using a 24-well plate, and then cultured by a serum-free medium. The hippocampal neurons were cultured in a cell incubator at 37° C., 5% CO2 for 19 days (DIV19), then added with a compound to be tested (a final concentration of 1 μM) and a positive control AP5 [(2R)-amino-5-phosphonopentanoic acid(phosphonatopentanoate)] (a final concentration of 100 μM), cultured for 24 h, and then added with L-Cystine (400 μM) and NaHCO3 (10 mM). After 18 h, Hoechst3342 (2.5 μg/ml) was added for cell staining. The cells were placed in the incubator and cultured for 15 min, and photographed using the high-content fluorescence microscope, wherein 6 random non-overlapping fields were photographed for each duplicate well, and the total number of neurons and the number of dead neurons were counted with software Image J. The obtained data was used to determine whether there was a difference between a drug treatment group and a control group.
# Compound treatment: 32 small molecule compounds in Embodiment 1 to Embodiment 19A were diluted with DMSO to a 1 mM mother solution; and 1 μL of mother solution was added to 1 ml of culture solution per well in a 24-well plate to a final concentration of 1 μM, wherein a positive control compound was […] of AP5 (100 mM mother solution), and a negative control was 1 μl of DMSO.
# [5] = tested on: C57BL/6J mice, LPS-induced peripheral and central inflammation; test: LPS-induced peripheral and central inflammation mouse model; format: in vivo; settings: 30 mg/kg p.o. QD*3
# Method: Modeling method: LPS (2 mg/kg, i.p., QD) was injected on Day 1, Day 2 and Day 3 to induce peripheral and central inflammations of mice. An ND drug test group was subjected to administration pre-protection (ND 30 mg/kg, p.o., QD) 2 h before LPS injection. After the experiment, plasma and brain tissues of the mice were collected for inflammatory factors, peroxidation factors and other indicators.
# • Serum: after the mice were anesthetized with 1% sodium pentobarbital, the eyeballs were harvested, the blood was taken and placed in an EP tube, and then centrifuged at low temperature after standing at 4° C. for 1 h, and a supernatant was taken, and frozen quickly in liquid nitrogen. • Hippocampal tissues: the mice were anesthetized with 1% sodium pentobarbital and then subjected to cardiac perfusion with cold PBS, brains were harvested, and tissues were taken on ice and frozen quickly in an EP tube with liquid nitrogen.
# Cryopreserved plasma was taken, and an reactive oxygen detection kit, a hydrogen peroxide detection kit and a nitric oxide detection kit were used to detect various indicators. The specific operation processes were the same as the instruction of each kit.
# The cryopreserved hippocampal tissues were taken, added with a RIPA tissue lysate containing a protease inhibitor, fully homogenized and cleaved. A supernatant was taken after low-temperature centrifugation. The protein quantification was performed by a BCA protein quantification kit. Tissue samples were adjusted to a unified protein concentration. An reactive oxygen detection kit, a hydrogen peroxide detection kit and a nitric oxide detection kit were used to detect various indicators.
# Cryopreserved plasma was taken, and IL-1β, IL-6 and IL-10 kits were used to detect various indicators. The specific operation processes were the same as the instruction of each kit.
# A hippocampal tissue supernatant was taken, and IL-1β, IL-6 and IL-10 kits were used to detect various indicators. The specific operation processes were the same as the instruction of each kit.
# Experimental results were expressed as “mean±standard deviation”. One-way ANOVA was used to compare the data of each group to determine whether there was a statistical difference between the groups.
# [6] = 80 mpk oral gavage once a day, 9 days
smiles,measurement,setting,value
"COc1ccc2c(c1)c(CC(=O)O)c(C)n2C(=O)c1ccc(Cl)cc1 [indomethacin, Indomethacin, reference compound]",Inflammation resolution (%) / anti-inflammatory effect,[1],67%
same,Number of neutrophils (mean ± SE),[1],6
same,Number of neutrophils (mean ± SE),[1]; listed as Indomethacin,6 ± 0.31
same,anti-inflammatory effect on inflammatory zebrafish (in words),[1]; P<0.001 vs model control,obvious anti-inflammatory effect
same,Inflammation resolution (%) / anti-inflammatory effect,[1]; listed as Indomethacin,67*** %
C[C@H]1CC[C@@]2(OC1)O[C@H]1C[C@H]3[C@@H]4CC[C@@H]5CC(NC(=O)CC(=O)N6CCN(C7CCN(CCF)CC7)CC6)CC[C@]5(C)C4CC[C@]3(C)[C@H]1[C@@H]2C (some centres unmarked) [Embodiment 36],colon ulcer area,[2],could reduce
same,colon weight per unit length (colon weight/colon length),[2],could reduce
CC(C)N1CCC(N2CCN(C(=O)CC(=O)NC3CC[C@]4(C)C5CC[C@]6(C)[C@@H]7[C@H](C[C@H]6[C@@H]5CC[C@@H]4C3)O[C@]3(CC[C@H](C)CO3)[C@H]7C)CC2)CC1 (some centres unmarked) [Embodiment 34],colon length,[3]; [6],could increase the weights and lengths of the colons
same,colon weight,[3]; [6],could increase the weights and lengths of the colons
same,general conditions of DSS colitis mice,[3]; [6],certain improvement effects
"O=C(O)c1cc(/N=N/c2ccc(S(=O)(=O)Nc3ccccn3)cc2)ccc1O [SASP, reference compound]",colon atrophy,[3]; 720 mg/kg positive drug,could inhibit colon atrophy
same,general conditions of DSS colitis mice,[3]; 720 mg/kg positive drug,certain improvement effects
C[C@H]1CC[C@@]2(OC1)O[C@H]1C[C@H]3[C@@H]4CC[C@@H]5C[C@H](NC(=O)CCN(C)C)CC[C@]5(C)[C@H]4CC[C@]3(C)[C@H]1[C@@H]2C [Embodiment 4B],protective effects on L-Cystine (400 μM)-induced neuronal excitotoxicity,[4],protective effects
C[C@@H]1CC[C@@]2(OC1)OC1CC3C4CC[C@H]5C[C@@H](NC(=O)CCN(C)C)CC[C@]5(C)C4CC(=O)[C@]3(C)C1[C@@H]2C (some centres unmarked) [Embodiment 20A],IL-10 in hippocampus,[5],only affected
same,IL-10 in serum,[5],only affected
same,anti-inflammatory effect (in words),[5],obvious anti-inflammatory effect; also recorded: good anti-inflammatory effect
same,antioxidant effect (in words),[5],good antioxidant effect
same,H2O2 concentration in serum,[5]; vs LPS group,significantly improved
same,NO concentration in serum,[5]; vs LPS group,significantly improved
same,ROS level in serum,[5]; vs LPS group,significantly improved
C[C@H]1CC[C@@]2(OC1)O[C@H]1C[C@H]3[C@@H]4CC[C@@H]5CC(NC(=O)CC(=O)N6CCN(C(=O)CN(C)C)CC6)CC[C@]5(C)C4CC[C@]3(C)[C@H]1[C@@H]2C (some centres unmarked) [Embodiment 37],colon ulcer area,[2],could reduce
same,colon weight per unit length (colon weight/colon length),[2],could reduce
CC(C)CN1CCN(C2CCN(C(=O)CC(=O)NC3CC[C@]4(C)C5CC[C@]6(C)[C@@H]7[C@H](C[C@H]6[C@@H]5CC[C@@H]4C3)O[C@]3(CC[C@H](C)CO3)[C@H]7C)CC2)CC1 (some centres unmarked) [Embodiment 33],colon length,[3]; [6],could increase the weights and lengths of the colons
same,colon weight,[3]; [6],could increase the weights and lengths of the colons
same,general conditions of DSS colitis mice,[3]; [6],certain improvement effects
C[C@H]1CC[C@@]2(OC1)O[C@H]1C[C@H]3[C@@H]4CC[C@@H]5CC(NC(=O)CC(=O)N6CCNCC6)CC[C@]5(C)[C@H]4CC[C@]3(C)[C@H]1[C@@H]2C (some centres unmarked) [Embodiment 10],protective effects on L-Cystine (400 μM)-induced neuronal excitotoxicity,[4],protective effects
"N[C@H](CCCP(=O)(O)O)C(=O)O [AP5, (2R)-amino-5-phosphonopentanoic acid(phosphonatopentanoate), reference compound]",protective effect on the neuronal excitotoxicity,[4]; AP5 100 μM,very significant protective effect
same,proportion of dead cells,"[4]; AP5 100 μM, L-Cystine 400 μM + NaHCO3 10 mM, without inducer 20.12%, DMSO 87.62%",27.58%
C[C@H]1CC[C@@]2(OC1)O[C@H]1C[C@H]3[C@@H]4CC[C@@H]5CC(NC(=O)CCN6CCN(C)CC6)CC[C@]5(C)[C@H]4CC[C@]3(C)[C@H]1[C@@H]2C (some centres unmarked) [Embodiment 1],protective effects on L-Cystine (400 μM)-induced neuronal excitotoxicity,[4],protective effects
